Experiment [1] addresses baculovirus-expressed ALK (Homo sapiens, UniProt Q9UM73). Kind of experiment: ALK kinase inhibition, TRF/ELISA. Type of experiment: biochemical. As to conditions: read-out: ALK Potency. The procedure, abridged:
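Eu-PT66 anti-phosphotyrosine TRF read-out measured phosphorylation of plate-bound GST-PLC-γ (coated at 10 μg/mL). The phosphorylation was driven by 30 ng/mL ALK for 15 minutes at 37° C.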
(In general: ELISA stands for enzyme-linked immunosorbent assay.)

The target in experiment [2] is baculovirus-expressed JAK2 kinase (Homo sapiens, UniProt O60674). Kind of experiment: biochemical. As to conditions: 0.2 μM ATP; read-out: JAK2 Potency. The procedure, abridged:
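IC50 derived by variable-slope sigmoidal fit of percent inhibition against log compound concentration. Baculovirus-expressed JAK2 (15 ng/mL) phosphorylated a plate-bound biotinylated 15-mer peptide for 20 min at room temperature; detection by time-resolved fluorescence.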

Our source for the IC50 values is patent US9238656B2, “Imidazo[4,5-b]pyridine derivatives as ALK and JAK modulators for the treatment of proliferative disorders” (priority 2012, dated 2016).

Where “and” joins values, the source holds several entries; their conditions need not be identical. Equal entries are not always repeated. Structures can show the parent of a compound that is named as a salt. Bounds are passed on as bounds.

baculovirus-expressed JAK2 kinase, sequence (O60674 whole entry): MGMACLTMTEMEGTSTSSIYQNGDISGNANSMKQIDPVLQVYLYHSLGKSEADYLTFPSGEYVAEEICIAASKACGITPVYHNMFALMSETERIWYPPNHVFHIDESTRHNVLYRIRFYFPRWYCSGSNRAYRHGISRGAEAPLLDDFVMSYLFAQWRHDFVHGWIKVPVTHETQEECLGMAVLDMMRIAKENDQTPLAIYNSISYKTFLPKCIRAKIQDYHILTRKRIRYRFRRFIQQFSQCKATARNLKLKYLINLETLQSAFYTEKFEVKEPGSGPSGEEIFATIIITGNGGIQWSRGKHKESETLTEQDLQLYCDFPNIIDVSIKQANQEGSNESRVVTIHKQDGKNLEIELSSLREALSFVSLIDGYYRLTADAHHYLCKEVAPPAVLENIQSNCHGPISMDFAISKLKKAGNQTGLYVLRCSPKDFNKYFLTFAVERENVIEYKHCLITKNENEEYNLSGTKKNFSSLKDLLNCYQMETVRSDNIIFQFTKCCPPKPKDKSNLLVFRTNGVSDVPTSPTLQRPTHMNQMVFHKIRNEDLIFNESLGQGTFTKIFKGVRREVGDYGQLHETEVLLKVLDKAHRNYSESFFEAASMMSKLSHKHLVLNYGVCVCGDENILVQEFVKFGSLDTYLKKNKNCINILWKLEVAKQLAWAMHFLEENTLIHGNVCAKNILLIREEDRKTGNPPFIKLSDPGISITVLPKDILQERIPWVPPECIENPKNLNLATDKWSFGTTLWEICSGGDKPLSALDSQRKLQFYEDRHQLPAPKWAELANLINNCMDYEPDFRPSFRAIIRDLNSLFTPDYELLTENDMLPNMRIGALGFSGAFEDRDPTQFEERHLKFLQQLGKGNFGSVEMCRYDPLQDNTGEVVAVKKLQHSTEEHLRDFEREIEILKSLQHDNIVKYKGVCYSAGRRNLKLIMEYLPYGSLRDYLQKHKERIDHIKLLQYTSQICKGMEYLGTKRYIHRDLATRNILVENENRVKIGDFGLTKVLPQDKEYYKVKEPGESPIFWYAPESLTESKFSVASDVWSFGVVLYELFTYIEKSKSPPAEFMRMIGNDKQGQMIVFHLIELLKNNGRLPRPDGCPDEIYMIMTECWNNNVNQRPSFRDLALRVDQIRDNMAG
baculovirus-expressed ALK, sequence (Q9UM73 19-1620): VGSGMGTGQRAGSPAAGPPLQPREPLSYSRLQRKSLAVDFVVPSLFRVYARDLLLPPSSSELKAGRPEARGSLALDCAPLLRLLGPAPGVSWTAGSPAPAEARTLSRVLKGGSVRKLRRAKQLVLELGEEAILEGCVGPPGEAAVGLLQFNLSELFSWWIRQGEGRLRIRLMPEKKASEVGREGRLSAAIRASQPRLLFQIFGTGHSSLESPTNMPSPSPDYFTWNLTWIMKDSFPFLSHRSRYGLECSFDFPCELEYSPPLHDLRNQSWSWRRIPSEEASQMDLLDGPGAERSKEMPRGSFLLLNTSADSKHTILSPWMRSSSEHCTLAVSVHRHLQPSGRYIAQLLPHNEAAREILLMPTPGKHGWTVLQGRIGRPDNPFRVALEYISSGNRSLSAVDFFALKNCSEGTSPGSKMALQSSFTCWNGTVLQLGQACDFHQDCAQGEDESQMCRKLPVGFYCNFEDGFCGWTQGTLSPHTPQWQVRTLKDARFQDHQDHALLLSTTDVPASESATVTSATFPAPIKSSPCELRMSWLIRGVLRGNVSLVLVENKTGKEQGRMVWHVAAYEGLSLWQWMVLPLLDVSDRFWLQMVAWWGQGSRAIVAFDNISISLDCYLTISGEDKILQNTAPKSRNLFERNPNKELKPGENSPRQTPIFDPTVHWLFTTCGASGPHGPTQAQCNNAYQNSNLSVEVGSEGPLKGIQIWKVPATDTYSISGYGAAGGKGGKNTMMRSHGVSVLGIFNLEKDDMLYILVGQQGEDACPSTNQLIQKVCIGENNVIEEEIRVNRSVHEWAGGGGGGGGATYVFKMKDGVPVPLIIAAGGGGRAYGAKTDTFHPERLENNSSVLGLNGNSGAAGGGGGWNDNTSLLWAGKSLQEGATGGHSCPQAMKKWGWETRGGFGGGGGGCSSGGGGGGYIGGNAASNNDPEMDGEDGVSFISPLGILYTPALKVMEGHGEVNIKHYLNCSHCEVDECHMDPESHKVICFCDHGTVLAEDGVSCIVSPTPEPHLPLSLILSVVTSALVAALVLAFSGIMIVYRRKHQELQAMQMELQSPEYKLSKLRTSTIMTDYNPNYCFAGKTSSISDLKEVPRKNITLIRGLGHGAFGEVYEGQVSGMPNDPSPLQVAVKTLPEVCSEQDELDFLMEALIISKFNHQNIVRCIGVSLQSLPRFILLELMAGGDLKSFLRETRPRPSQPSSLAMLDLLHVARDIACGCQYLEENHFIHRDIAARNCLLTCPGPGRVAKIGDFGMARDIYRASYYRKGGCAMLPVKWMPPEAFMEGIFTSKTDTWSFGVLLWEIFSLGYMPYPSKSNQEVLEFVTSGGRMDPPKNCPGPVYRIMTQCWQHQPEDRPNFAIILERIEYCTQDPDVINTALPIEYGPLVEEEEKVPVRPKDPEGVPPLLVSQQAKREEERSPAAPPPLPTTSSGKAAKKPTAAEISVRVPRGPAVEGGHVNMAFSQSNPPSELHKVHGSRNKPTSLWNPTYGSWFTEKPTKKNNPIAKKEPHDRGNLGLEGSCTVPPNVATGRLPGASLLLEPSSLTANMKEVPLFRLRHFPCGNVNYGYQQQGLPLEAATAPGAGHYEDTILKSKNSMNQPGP

In the case of `COc1cc(N2CCN(C)CC2)ccc1-c1nc2c(N[C@H]3[C@@H](C(=O)N(C)C)[C@@H]4C=C[C@H]3C4)c(Cl)cnc2[nH]1` [Compound CXCVII, (1S,2S,3R,4R)-3-(6-chloro-2-(2-methoxy-4-(4-methylpiperazin-1-yl)phenyl)-3H-imidazo[4,5-b]pyridin-7-ylamino)-N,N-dimethylbicyclo[2.2.1]hept-5-ene-2-carboxamide], the IC50 was under 100 nM in experiment [1] and 100 to 1000 nM in experiment [2].
`CC(O)CN1CCC(Oc2cccc(-c3nc4c(N[C@H]5[C@@H](C(N)=O)[C@@H]6C=C[C@H]5C6)c(Cl)cnc4[nH]3)c2)CC1` (stereo partly drawn) [Compound CCLI, (1S,2S,3R,4R)-3-(6-chloro-2-(3-(1-(2-hydroxypropyl)piperidin-4-yloxy)phenyl)-3H-imidazo[4,5-b]pyridine-7-ylamino)pyridin[2.2.1]hept-5-ene-2-carboxamide]: the IC50 in experiment [1] and in experiment [2] was under 100 nM in each case.
Turning to `COc1ccc(-c2nc3c(N[C@H]4[C@@H](C(N)=O)[C@@H]5C=C[C@H]4C5)c(Cl)cnc3[nH]2)c(C2CCN(C[C@H](O)CO)CC2)c1` [Compound XXXIII], the IC50 in experiment [1] and in experiment [2] was 100 to 1000 nM each time.
As to `NC(=O)[C@@H]1[C@H](Nc2c(Cl)cnc3[nH]c(-c4ccc(C(=O)N5CCNC(C(=O)O)C5)cc4)nc23)[C@H]2C=C[C@@H]1C2` (stereo partly drawn) [Compound CCXXVI, 4-(4-(7-((1R,2R,3S,4S)-3-carbamoylbicyclo[2.2.1]hept-5-en-2-ylamino)-6-chloro-3H-imidazo[4,5-b]211pyridine-2-yl)benzoyl)piperazine-2-carboxylic acid], the IC50 in experiment [1] and in experiment [2] was under 100 nM in each case.
Consider `NC(=O)[C@@H]1[C@H](Nc2c(Cl)cnc3[nH]c(-c4cccc(OCCN5CCOCC5)c4)nc23)[C@H]2C=C[C@@H]1C2` [Compound CCXXXVII, (1S,2S,3R,4R)-3-(6-chloro-2-(3-(2-morpholinoethoxy)phenyl)-3H-imidazo[4,5-b]pyridine-7-ylamino)pyridin[2.2.1]hept-5-ene-2-carboxamide], for which the IC50 is under 100 nM in experiment [1]; < 100 nM and 100 to 1000 nM in experiment [2].
Consider `N#Cc1cccc(-c2nc3c(N[C@H]4[C@@H](C(N)=O)[C@@H]5C=C[C@H]4C5)c(Cl)cnc3[nH]2)c1` [Compound CXLIV, (1S,2S,3R,4R)-3-[6-Chloro-2-(3-cyano-phenyl)-3H-imidazo[4,5-b]pyridin-7-ylamino]-bicyclo[2.2.1]hept-5-ene-2-carboxylic acid amide], for which the IC50 in experiment [1] was 100 to 1000 nM; in experiment [2] it was under 100 nM.
On to `CN1CCC(c2nc3c(N[C@H]4[C@@H](C(N)=O)[C@@H]5C=C[C@H]4C5)c(Cl)cnc3[nH]2)CC1` [Compound CL, (1S,2S,3R,4R)-3-[6-Chloro-2-(1-methyl-piperidin-4-yl)-3H-imidazo[4,5-b]pyridin-7-ylamino]-bicyclo[2.2.1]hept-5-ene-2-carboxylic acid amide], for which the IC50 was 1000 to 10000 nM in experiment [1] and over 10000 nM in experiment [2].
In the same order, the values of `CN(C)CCNC(=O)c1ccc(-c2nc3c(N[C@H]4[C@@H](C(N)=O)[C@@H]5C=C[C@H]4C5)c(Cl)cnc3[nH]2)cc1` [Compound CCXXXII, (1S,2S,3R,4R)-3-{6-Chloro-2-[4-(2-dimethylamino-ethylcarbamoyl)-phenyl]-3H-imidazo[4,5-b]pyridine-7-ylamino}-bicyclo[2.2.1]hept-5-ene-2-carboxylic acid amide] are under 100 nM and under 100 nM.
In the same order, the values of `Cc1ncc(-c2nc3c(N[C@H]4[C@@H](C(N)=O)[C@@H]5C=C[C@H]4C5)c(Cl)cnc3[nH]2)s1` [Compound CCVIII, (1S,2S,3R,4R)-3-(6-chloro-2-(2-methylthiazol-5-yl)-3H-imidazo[4,5-b]pyridin-7-ylamino)bicyclo[2.2.1]hept-5-ene-2-carboxamide] are 100 to 1000 nM and under 100 nM.
For `Cc1cc(N2CCOCC2)ccc1-c1nc2c(N[C@H]3[C@@H](C(N)=O)[C@@H]4C=C[C@H]3C4)c(Cl)cnc2[nH]1` [Compound CXXI, (1S,2S,3R,4R)-3-[6-Chloro-2-(2-methyl-4-morpholin-4-yl-phenyl)-3H-imidazo[4,5-b]pyridin-7-ylamino]-bicyclo[2.2.1]hept-5-ene-2-carboxylic acid amide], the IC50 is 100 to 1000 nM in experiment [1] and under 100 nM in experiment [2].
Consider `COc1cc(N2CCC(N3CCN(C)CC3)CC2)ccc1-c1nc2c(N[C@@H]3CCCC[C@H]3NS(C)(=O)=O)c(Cl)cnc2[nH]1` [CCLIII], for which the figures for the IC50 in experiment [1] and in experiment [2] were under 100 nM and 1000 to 10000 nM, respectively.
Regarding `N#Cc1ccc(-c2nc3c(N[C@H]4[C@@H](C(N)=O)[C@@H]5C=C[C@H]4C5)c(Br)cnc3[nH]2)cc1` [Compound CXLVII, (1S,2S,3R,4R)-3-[6-Bromo-2-(4-cyano-phenyl)-3H-imidazo[4,5-b]pyridin-7-ylamino]-bicyclo[2.2.1]hept-5-ene-2-carboxylic acid amide], the IC50 in experiment [1] was 100 to 1000 nM; in experiment [2], under 100 nM.
Turning to `CC(O)CN1CCN(C(=O)COc2ccc(-c3nc4c(N[C@H]5[C@@H](C(N)=O)[C@@H]6C=C[C@H]5C6)c(Cl)cnc4[nH]3)cc2)CC1` (stereo partly drawn) [Compound CCXLII, (1S,2S,3R,4R)-3-(6-chloro-2-(4-(2-(4-(2-hydroxypropyl)piperazin-1-yl)-2-oxoethoxy)phenyl)-3H-imidazo[4,5-b]pyridin-7-ylamino)bicyclo[2.2.1]hept-5-ene-2-carboxamide], the IC50 in experiment [1] and in experiment [2] was under 100 nM in each case.
Regarding `COc1ccc(CN2CCOCC2)cc1-c1nc2c(N[C@@H]3CCCC[C@H]3NS(C)(=O)=O)c(Cl)cnc2[nH]1` [Compound LXXIV, N-{(1R,2R)-2-[6-Chloro-2-(2-methoxy-5-morpholin-4-ylmethyl-phenyl)-3H-imidazo[4,5-b]pyridine-7-ylamino]-cyclohexyl}-methanesulfonamide], the IC50 is 100 to 1000 nM in experiment [1] and over 10000 nM in experiment [2].
The corresponding values for `NC(=O)[C@@H]1[C@H](Nc2c(Cl)cnc3[nH]c(-c4ccc(OCC(=O)O)cc4)nc23)[C@H]2C=C[C@@H]1C2` [Compound CCXLVI, 2-(4-(7-((1R,2R,3S,4S)-3-carbamoylbicyclo[2.2.1]hept-5-en-2-ylamino)-6-chloro-3H-imidazo[4,5-b]pyridin-2-yl)phenoxy)acetic acid] are 100 to 1000 nM and under 100 nM.
Take `CN1CCC(Oc2cccc(-c3nc4c(N[C@H]5[C@@H](C(N)=O)[C@@H]6C=C[C@H]5C6)c(Cl)cnc4[nH]3)c2)CC1` [Compound CCXLVIII, (1S,2S,3R,4R)-3-(6-chloro-2-(3-(1-methylpiperidin-4-yloxy)phenyl)-3H-imidazo[4,5-b]pyridin-7-ylamino)bicyclo[2.2.1]hept-5-ene-2-carboxamide]: the IC50 in experiment [1] and in experiment [2] was under 100 nM in each case.
Turning to `CC(C)(C)OC(=O)N1CCCC(c2nc3c(N[C@H]4[C@@H](C(N)=O)[C@@H]5C=C[C@H]4C5)c(Cl)cnc3[nH]2)C1` (stereo partly drawn) [Compound XI, 3-[7-((1R,2R,3S,4S)-3-Carbamoyl-bicyclo[2.2.1]hept-5-en-2-ylamino)-6-chloro-3H-imidazo[4,5-b]pyridine-2-yl]-piperidine-1-carboxylic acid tert-butyl ester], the IC50 in experiment [1] and in experiment [2] was over 10000 nM each time.
Consider `COc1cc(CN(C)C)ccc1-c1nc2c(N[C@H]3[C@@H](C(N)=O)[C@@H]4C=C[C@H]3C4)c(Cl)cnc2[nH]1` [Compound XLVI, (1S,2S,3R,4R)-3-[6-Chloro-2-(4-dimethylaminomethyl-2-methoxyphenyl)-3H-imidazo[4,5-b]pyridine-7-ylamino)-bicyclo[2.2.1]hept-5-ene-2-carboxylic acid amide, trifluoroacetic acid salt], for which the IC50 in experiment [1] and in experiment [2] was under 100 nM each time.
For the compound `CC(C)(C)OC(=O)N1CCC(n2cc(-c3nc4c(N[C@H]5[C@@H](C(N)=O)[C@@H]6C=C[C@H]5C6)c(Cl)cnc4[nH]3)cn2)CC1` [Compound L, 4-{4-[7-((1R,2R,3S,4S)-3-Carbamoyl-bicyclo[2.2.1]hept-5-en-2-ylamino)-6-chloro-3H-imidazo[4,5-b]pyridine-2-yl]-pyrazol-1-yl}-piperidine-1-carboxylic acid tert-butyl ester], the IC50 in experiment [1] was 100 to 1000 nM; in experiment [2] it was under 100 nM.
Regarding `COc1cc(N2CCOCC2)ccc1-c1nc2c(N3C[C@@H]4C[C@H]3CN4C(=O)OC(C)(C)C)c(Cl)cnc2[nH]1` [Compound XXXVI, (1S,4S)-5-[6-Chloro-2-(2-methoxy-4-morpholinj-4-yl-phenyl)-3H-imidazol-[4,5-b]pyridine-7-yl]-2,5-diaza-bicyclo[2.2.1]heptane-2-carboxylic acid tert-butyl ester], the IC50 in experiment [1] was over 10000 nM; in experiment [2], 1000 to 10000 nM.
The corresponding values for `N#Cc1cccc(-c2nc3c(N[C@H]4[C@@H](C(N)=O)[C@@H]5C=C[C@H]4C5)c(Br)cnc3[nH]2)c1` [Compound CXLVI, (1S,2S,3R,4R)-3-[6-Bromo-2-(3-cyano-phenyl)-3H-imidazo[4,5-b]pyridin-7-ylamino]-bicyclo[2.2.1]hept-5-ene-2-carboxylic acid amide] are 100 to 1000 nM and under 100 nM.
On to `CN(C)C(=O)[C@@H]1[C@H](Nc2c(Cl)cnc3[nH]c(-c4sc(N5CCCC5)nc4Cl)nc23)[C@H]2C=C[C@@H]1C2` [Compound CLXIV, (1S,2S,3R,4R)-3-[6-Chloro-2-(4-chloro-2-pyrrolidin-1-yl-thiazol-5-yl)-3H-imidazo[4,5-b]pyridin-7-ylamino]-bicyclo[2.2.1]hept-5-ene-2-carboxylic acid dimethylamide], for which the IC50 in experiment [1] and in experiment [2] was under 100 nM in each case.
